Measurements taken from US20070128217A1 (priority 2003, published 2007).

What was measured:
[1] = system: rabbit serum obtained by immunizing a rabbit with the SARS-CoV strain Frankfurt 1; assay type: binding; design: Binding of a rabbit serum to linear peptides / Binding of a rabbit serum to looped peptides / Rabbit serum linear peptides / Rabbit serum looped peptides / Binding of a rabbit serum to linear peptides of protein N of SARS-CoV Urbani (Rabbit serum linear peptides) / Binding of a rabbit serum to looped/cyclic peptides of protein N of SARS-CoV Urbani (Rabbit serum looped peptides): unit not given here
[2] = system: control sera (pooled serum of ten healthy LUMC hospital workers; commercial negative donor pooled serum from the Dutch bloodbank); assay type: binding, human; design: Binding of Control serum LUMC to linear peptides / Binding of Control serum Blood-bank to linear peptides / Binding of Control serum LUMC to looped peptides / Binding of Control Serum Blood-Bank to Looped peptides / Binding of Control serum LUMC to linear peptides of the protein M of SARS-CoV Urbani / Binding of Control serum Blood-bank to linear peptides of the protein M of SARS-CoV Urbani / Binding of Control serum LUMC to looped peptides of the protein M of SARS-CoV Urbani / Binding of Control Serum Blood-Bank to Looped peptides of the protein M of SARS-CoV Urbani: unit not given here
[3] = system: antibodies in sera from SARS patients (sera 1a, 1b, 2, 6, 37, 62, London, SARS-yellow, SARS-green); assay type: binding, human; design: Binding of serum 6 to linear peptides of protein X1 of SARS-CoV Urbani / Binding of serum 37 to linear peptides of protein X1 of SARS-CoV Urbani / Binding of serum 6 to looped/cyclic peptide (PEPSCAN-ELISA) / Binding of serum 37 to looped/cyclic peptide (PEPSCAN-ELISA) / Binding of serum 37 to looped/cyclic peptides of protein X1 of SARS-CoV Urbani / Binding of serum 6 to linear peptides of protein X2 / Binding of serum 37 to linear peptides of protein X2 / Binding of serum 37 to looped/cyclic peptides of protein X2 of SARS-CoV Urbani / Binding of serum 6 to linear peptides of protein M of SARS-CoV Urbani / Binding of serum 37 to linear peptides of protein M of SARS-CoV Urbani / Binding of serum 6 to looped/cyclic peptides of protein M of SARS-CoV Urbani / Binding of serum 37 to looped/cyclic peptides of protein M of SARS-CoV Urbani / Binding of serum 6 to linear peptides of protein X3 of SARS-CoV Urbani / Binding of serum 37 to linear peptides of protein X3 of SARS-CoV Urbani / Binding of serum 37 to looped/cyclic peptides of protein X3 of SARS-CoV Urbani / Binding of serum 6 to linear peptides of protein X4 of SARS-CoV Urbani / Binding of serum 37 to linear peptides of protein X4 of SARS-CoV Urbani / Binding of serum 37 to looped/cyclic peptides of protein X4 of SARS-CoV Urbani / Binding of serum 6 to linear peptides of protein X5 of SARS-CoV Urbani / Binding of serum 37 to linear peptides of protein X5 of SARS-CoV Urbani / Binding of serum 37 to looped/cyclic peptides of protein X5 of SARS-CoV Urbani / Binding of serum 6 to linear peptides of protein N of SARS-CoV Urbani / Binding of serum 37 to linear peptides of protein N of SARS-CoV Urbani / Binding of serum 6 to linear peptide (PEPSCAN-ELISA) / Binding of serum 1a to looped/cyclic peptides of protein N of SARS-CoV Urbani / Binding of serum 1b to looped/cyclic peptides of protein N of SARS-CoV Urbani / Binding of serum 2 to looped/cyclic peptides of protein N of SARS-CoV Urbani / Binding of serum 6 to looped/cyclic peptides of protein N of SARS-CoV Urbani / Binding of serum 37 to looped/cyclic peptides of protein N of SARS-CoV Urbani / Binding of serum 62 to looped/cyclic peptides of protein N of SARS-CoV Urbani / Binding of serum London to looped/cyclic peptides of protein N of SARS-CoV Urbani / Binding of serum SARS-green to looped/cyclic peptides of protein N of SARS-CoV Urbani: unit not given here
[4] = system: recombinant human anti-SARS-CoV antibody 03-018; assay type: binding; design: Binding of antibody 03-018 to linear peptides of the N protein of SARS-CoV Urbani / Binding of antibody 03-018 to looped/cyclic peptides of the N protein of SARS-CoV Urbani: unit not given here

Row | Sequence | Binding of a rabbit serum to linear peptides of protein N of SARS-CoV Urbani (Rabbit serum linear peptides) [1] | Binding of a rabbit serum to looped/cyclic peptides of protein N of SARS-CoV Urbani (Rabbit serum looped peptides) [1] | Binding of serum 1a to linear peptides of protein N of SARS-CoV Urbani [3] | Binding of serum 1a to looped/cyclic peptides of protein N of SARS-CoV Urbani [3] | Binding of serum 1b to linear peptides of protein N of SARS-CoV Urbani [3] | Binding of serum 1b to looped/cyclic peptides of protein N of SARS-CoV Urbani [3] | Binding of serum 2 to linear peptides of protein N of SARS-CoV Urbani [3] | Binding of serum 2 to looped/cyclic peptides of protein N of SARS-CoV Urbani [3] | Binding of serum 6 to linear peptides of protein N of SARS-CoV Urbani [3] | Binding of serum 6 to looped/cyclic peptides of protein N of SARS-CoV Urbani [3] | Binding of serum 37 to linear peptides of protein N of SARS-CoV Urbani [3] | Binding of serum 37 to looped/cyclic peptides of protein N of SARS-CoV Urbani [3] | Binding of serum 62 to linear peptides of protein N of SARS-CoV Urbani [3] | Binding of serum 62 to looped/cyclic peptides of protein N of SARS-CoV Urbani [3] | Binding of serum London to linear peptides of protein N of SARS-CoV Urbani [3] | Binding of serum London to looped/cyclic peptides of protein N of SARS-CoV Urbani [3] | Binding of serum SARS-green to linear peptides of protein N of SARS-CoV Urbani [3] | Binding of serum SARS-yellow to linear peptides of protein N of SARS-CoV Urbani [3] | Binding of antibody 03-018 to linear peptides of the N protein of SARS-CoV Urbani [4] | Binding of antibody 03-018 to looped/cyclic peptides of the N protein of SARS-CoV Urbani [4] | other results
1 | HGKEELRFPRGQGVP | 0.1 | 0.3 | 0.2 | 0.3 | 0.2 | 0.2 | 0.3 | 0.4 | 0.1 | 0.2 | 0.7 | 0.5 | 0.7 | 0.3 | 0.5 | 0.4 | 0.5 | 0.7 | 0.1 | 0.2 | Binding of Control Serum Blood-Bank to Looped peptides [2]: 0.5; Binding of Control serum Blood-bank to linear peptides [2]: 0.8; Binding of Control serum LUMC to linear peptides [2]: 0.6; Binding of Control serum LUMC to looped peptides [2]: 0.5; Binding of serum SARS-green to looped/cyclic peptides of protein N of SARS-CoV Urbani [3]: 0.2; Binding of serum SARS-yellow to looped/cyclic peptides of protein N of SARS-CoV Urbani [3]: 0.5
2 | VILLNKHIDAYKTFP | 0.1 | 0.4 | 0.2 | 0.3 | 0.1 | 0.1 | 0.2 | 0.3 | 0.2 | 0.2 | 0.7 | 0.5 | 0.7 | 0.4 | 0.5 | 0.4 | 0.4 | 0.5 | 0.1 | 0.2 | Control Serum Blood-Bank Looped peptides [2]: 0.5; Control serum Blood-bank linear peptides [2]: 0.7; Control serum LUMC linear peptides [2]: 0.8; Control serum LUMC looped peptides [2]: 0.4; Binding of serum SARS-green to looped/cyclic peptides of protein N of SARS-CoV Urbani [3]: 0.2; Binding of serum SARS-yellow to looped/cyclic peptides of protein N of SARS-CoV Urbani [3]: 0.3
3 | KHWPQIAQFAPSASA | 0.2 | 0.0 | 0.3 | 0.3 | 0.1 | 0.1 | 0.3 | 0.3 | 0.2 | 0.3 | 0.8 | 0.2 | 0.7 | 0.4 | 0.7 | 0.5 | 0.6 | 0.8 | 0.1 | 0.2 | Control Serum Blood-Bank Looped peptides [2]: 0.7; Control serum Blood-bank linear peptides [2]: 0.8; Control serum LUMC linear peptides [2]: 0.7; Control serum LUMC looped peptides [2]: 0.6; Binding of serum SARS-green to looped/cyclic peptides of protein N of SARS-CoV Urbani [3]: 0.4; Binding of serum SARS-yellow to looped/cyclic peptides of protein N of SARS-CoV Urbani [3]: 0.2
4 | MSRIGMEVTPSGTWL | 0.2 | 0.5 | 0.3 | 0.4 | 0.1 | 0.3 | 0.2 | 0.5 | 0.2 | 0.3 | 0.6 | 0.6 | 0.7 | 0.7 | 0.5 | 0.5 | 0.3 | 0.6 | 0.1 | 0.2 | Control Serum Blood-Bank Looped peptides [2]: 0.7; Control serum Blood-bank linear peptides [2]: 0.8; Control serum LUMC linear peptides [2]: 0.7; Control serum LUMC looped peptides [2]: 0.7; Binding of serum SARS-green to looped/cyclic peptides of protein N of SARS-CoV Urbani [3]: 0.7; Binding of serum SARS-yellow to looped/cyclic peptides of protein N of SARS-CoV Urbani [3]: 0.5
5 | QRQKKQPTVTLLPAA | 0.2 | 0.7 | 0.3 |  | 0.1 |  | 0.3 |  | 0.2 |  | 0.7 |  | 0.8 |  | 0.6 |  | 0.7 | 0.6 | 0.1 | 0.3 | Control Serum Blood-Bank Looped peptides [2]: 1.1; Control serum Blood-bank linear peptides [2]: 0.8; Control serum LUMC linear peptides [2]: 0.7; Control serum LUMC looped peptides [2]: 0.8; Recognition of the peptide by sera of SARS-CoV infected individuals, and form (linear, looped/cyclic) in which it is recognized [3]: recognized in looped/cyclic form
